We go through 2 compounds from patent publication US12280121B2, “Immunoconjugates and methods” (Immunome, Inc., priority 2021, dated 2025).

Data set [1] has as its system Jeko-1. The experiment in a line: CTG assay (CellTiter-Glo cell viability), Jeko-1, payload compounds. Particulars: 72 h, CellTiter-Glo; read-out: JeKo-1 IC50. Type of data set: cell-based. The text has this:
(§1) The CTG assay is a method of determining the number of viable cells in culture based on quantitation of the ATP present, an indicator of metabolically active cells. The cell assay requires the addition of a single reagent, Cell Titer Glo, in which cells are lysed and generation of a luminescent signal is produced. The luminescent signal is proportional to the amount of ATP present. The amount of ATP is directly proportional to the number of cells present in culture. For our assay, cells were ensured to be in log-phase for either Jeko-1 or MDA-MB-468. Cells were transferred to 96 wells and treated with compounds in three-fold serial dilution starting from 1 μM to 0.0000508 μM (10 points dilution), for 72 h. Cell viability was analyzed with CellTiter-Glo® Luminescent Cell Viability Assay (Promega) following manufactures' instruction. Percentage of viable cells in each compound concentration was determined by normalizing with the luminescence of vehicle control and plotted into percentage of viability versus dose response curve by nonlinear fit in GraphPad Prism software.

The next data set concerns MDA-MB-468. The experiment in a line: CTG assay (CellTiter-Glo cell viability), MDA-MB-468, payload compounds. Particulars: 72 h, CellTiter-Glo; read-out: MDA-MB-468 IC50. Format: cell-based.
Excerpt: as §1
In general terms: ATP-based viability assays read luminescence as a measure of living cells.

In the next data set the test system is human hepatocytes. The experiment in a line: Human hepatocyte clearance (HHEP CL). Type of data set: in vitro ADME. Particulars: human hepatocytes, 90 min incubation. The method, then:
Suspensions of human hepatocytes (from 10 mixed gender human donors, final concentration 0.5×10^6 cell/mL) in Williams' E medium were incubated for 90 min with a test compound (0.90% acetonitrile and 0.10% DMSO, final concentration […]) and positive controls (7-Ethoxycoumarin, 7-Hydroxycoumarin, 0.90% acetonitrile and 0.10% DMSO, final concentration […]), with constant shaking at about 600 rpm at 37° C. in an incubator at 5% CO2 and 95% humidity. The total volume of incubation was 200 μl. A sample ([…]) was taken out at TO, 15, 30, 60 and 90 min, which was added intermediately to the ice-cold stop solution (acetonitrile with 200 ng/mL of tobutamide and labetalol as internal standard) (125 μl), and vortexed at 500 rpm for 10 min, centrifuged at 3220×g for 20 min at 4° C. Analytical plates are sealed and stored at 4° C. until LCMS analysis. Viability of hepatocytes at pre-incubation was determined to be 84.5%.
(§2) Human liver microsome clearance assay assess metabolism by the cytochrome P450 system (phase I enzymes). These enzymes oxidize substrates by incorporating oxygen atoms into hydrocarbons, thus causing the introduction of hydroxyl groups, or N- O- and S-dealkylation of substrates and forming more polar products easier to be cleared. Human hepatocyte clearance assay measures more broadly the overall cellular metabolism of the test compound (phase I and phase II enzyme pathways). Phase II enzymes catalyze the conjugation reaction of xenobiotic metabolites and charged species, such as glutathione, sulfate, glycine, or glucuronic acid to form even more polar compounds for easier clearance.

Another data set deals with human liver microsome. The experiment in a line: Human liver microsome clearance (HLM CL). Format: in vitro ADME. Particulars: human liver microsomes 0.5 mg protein/mL, NADPH, 60 min. The method, then:
Working solution was prepared by adding 5 μL of compound and control stock solution (10 mM in dimethyl sulfoxide, DMSO) to 495 μL of acetonitrile (ACN) (intermediate solution concentration: 100 μM, 99% CAN and 1% DMSO. The appropriate concentrations of microsome working solutions were prepared in 100 mM potassium phosphate buffer. After reaction plates containing mixtures of compound and microsomes were pre-incubated at 37° C. for 10 min, […] of 2 mM of NADPH and 2 mM of MgCl2 solution was added to start the reaction. The final concentrations of incubation medium were as follows: microsome—0.5 mg protein/mL, test compound/control […], NADPH—1 mM, MgCl2 —1 mM, acetonitrile 0.99%, DMSO 0.01%. Incubations were performed at 37° C. for 60 min. Samples were taken out at TO, T5, T15, T30, T45 and T60, which was added intermediately to the ice-cold stop solution (acetonitrile with 200 ng/mL of tobutamide and labetalol as internal standard) (125 μl), shaken for 10 min, centrifuged at 4000 rpm for 20 min at 4° C. Analytical plates were analyzed by LCMS.
as §2

Data set [2] concerns Jeko-1. The experiment in a line: CTG assay of ROR-1 ADCs and toxins, JeKo-1. Type of data set: cell-based. As for the experimental part: FIG. 33 illustrates a CTG assay wherein ROR+ (JeKo-1) cells were incubated with the ADCs generated as described in FIG. 32 in serial three-fold dilutions and cell viability was assessed after 72 hours.
as §1
Novel ROR-1 antibody-drug conjugates (ADCs) were evaluated by CTG Assay in a similar manner as was described in Example 24 for screening of payloads. […] Briefly ROR+(JeKo-1/MDA-MB-468) or ROR− (Ramos) cells were transferred to 96 wells and treated with the ADCs in three-fold serial dilution starting from […] (10 points dilution), for 72 h. Cell viability was analyzed with CellTiter-Glo® Luminescent Cell Viability Assay (Promega) following the manufactures' instructions (FIG. 33). The percentage of viable cells at each ADC concentration was determined by normalizing with the luminescence of vehicle control and plotted into percentage of viability versus dose response curve by nonlinear fit in GraphPad Prism software.

The nature of data set [3]: AC-SINS self-interaction assay. Format: physicochemical. Particulars: FIG. 30.
Method: Antibody developability was assessed by performing an AC-SINS assay and evaluating the potential for self-interaction.
An initial assessment of antibody developability was performed by AC-SINS to evaluate the potential for self-interaction (FIG. 30).

As for `CC[C@@]1(O)C(=O)OCc2c1cc1n(c2=O)Cc2c-1nc1cc(F)c(C)c3c1c2[C@@H](NC(=O)CO)CC3` [Dxd, reference compound], the concentration for half-maximal inhibition (IC50) (as a rule, the concentration needed to halve the response being measured) in the data set on Jeko-1 [1] stood at 1.42 nM; in the data set with MDA-MB-468, 11.6 nM; in the data set with Jeko-1 [2] (Jeko-1, average of run 1 and run 2, read-out: Avg. IC50), 0.9 nM; in the data set on Jeko-1 [2] (Jeko-1 P3, run 1, 72 h, read-out: Jeko-1 P3 (RUN1) IC50), 0.9 nM. In the data set on human hepatocytes, the “HHEP (T1/2)” value was “(79.0) min”. Moreover, in the data set with human hepatocytes, the “HHEP Cl (human hepatocytes intrinsic clearance)” value was determined as 48.7 mL/min/kg. Moreover, the “HLM (T1/2)” value with human liver microsome is on record as “(>145)”. The “HLM Cl (human liver microsome clearance)” value with human liver microsome was determined as 8.6 mL/min/kg.

On to Adalimumab, for which, in data set [3], the “AC-SINS shift (self-interaction)” value is “low shift”.
